# Assay results as given in patent publication US20260200943A1, “COMPOUNDS FOR TREATING CANCER” (Genesis Therapeutics, Inc., priority 2022, published 2026).
# Legend:
# Format in all cases: biochemical
# CDK2/CyclinA2 = molecular target: T1, CDK2/CyclinA2 (Homo sapiens, UniProt P24941); assay: CDK2/CyclinA2 ChEF Assay (Table A); conditions: for Ki: 10xKm, read-out: CDK2/CCNA2 ChEF 10xKm Ki: Average Ki
# T1 construct: Wild-type, full length CDK2 in complex with wildtype, full length CyclinA2: Carna Cat #04-103; purchased Carna 04-103
# Description: 500 nL of 50× compound in 100% DMSO is added to a 384-well low volume, white assay plate. 19.5 μL of 1.3×CDK2/CyclinA2 (Wild-type, full length CDK2 in complex with wildtype, full length CyclinA2: Carna Cat #04-103 diluted in assay buffer (50 mM Hepes, 0.01% Brij-35, 10 mM MgCl2, 0.5 mM EGTA, 1% Glycerol, and 1.2 mM DTT) is added to the plates on top of the compound and pre-incubated for 30 minutes at room temperature. Following the incubation, 5 μL of 5×Sox-chromophore (CSox) labeled peptide substrate (AQT0255, AssayQuant) & ATP diluted in assay buffer is added to the plate to initiate the reaction. The assay is incubated at room temperature for 45 min after initiation. The CSox peptide substrate is phosphorylated by CDK2/A2 upon ATP hydrolysis.
# (§1) The fluorescent intensity measurement of the assay plate for all assays described above is read on a microplate reader once the assay is initiated and again at the completion of the assay. Phosphorylation of the CSox-based peptide substrate sensor results in an immediate increase in fluorescence. These raw fluorescence intensity values are normalized to calculate percent inhibition, which are fit to a four-parameter logistic curve and IC50 values are calculated. IC50 values are converted to Ki using substrate, KM^app values, and the Cheng-Prusoff equation.
# CDK1/CyclinB1 [1] = molecular target: T2, CDK1/CyclinB1 (Homo sapiens, UniProt P06493); assay: CDK1/CyclinB1 ChEF Assay (Table A); conditions: read-out: CDK1/CCNB1 ChEF Ki: Average Ki;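 note: Ki reported in nM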
# T2 construct: Wild-type, full length CDK1 in complex with wildtype, full length CyclinB1: Carna Cat #04-102; purchased Carna 04-102
# T2 sequence (P06493 whole entry): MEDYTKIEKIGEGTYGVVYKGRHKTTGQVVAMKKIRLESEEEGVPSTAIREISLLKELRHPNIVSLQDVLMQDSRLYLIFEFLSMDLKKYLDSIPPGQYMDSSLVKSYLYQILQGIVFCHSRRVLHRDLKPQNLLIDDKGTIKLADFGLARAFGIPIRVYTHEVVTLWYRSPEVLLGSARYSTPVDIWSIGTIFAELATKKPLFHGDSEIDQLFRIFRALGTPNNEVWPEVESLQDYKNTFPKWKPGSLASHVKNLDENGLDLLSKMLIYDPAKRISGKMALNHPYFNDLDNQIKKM
# T2 sequence (P14635 whole entry partner): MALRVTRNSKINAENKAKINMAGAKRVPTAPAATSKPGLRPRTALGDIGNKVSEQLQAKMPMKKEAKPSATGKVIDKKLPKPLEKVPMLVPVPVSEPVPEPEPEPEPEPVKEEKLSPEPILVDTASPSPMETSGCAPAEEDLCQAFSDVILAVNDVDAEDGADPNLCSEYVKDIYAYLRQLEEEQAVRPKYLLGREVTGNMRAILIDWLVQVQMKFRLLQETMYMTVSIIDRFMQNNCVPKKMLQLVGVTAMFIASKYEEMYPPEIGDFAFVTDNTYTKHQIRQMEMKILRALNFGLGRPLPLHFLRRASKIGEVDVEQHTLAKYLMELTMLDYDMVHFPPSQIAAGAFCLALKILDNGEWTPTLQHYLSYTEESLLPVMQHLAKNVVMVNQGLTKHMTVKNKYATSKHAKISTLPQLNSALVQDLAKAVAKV
# Description: 500 nL of 50× compound in 100% DMSO is added to a 384-well low volume, white assay plate. 19.5 μL of 1.3×CDK1/CyclinB1 (Wild-type, full length CDK1 in complex with wildtype, full length CyclinB1: Carna Cat #04-102) diluted in assay buffer (50 mM Hepes, 0.01% Brij-35, 10 mM MgCl2, 0.5 mM EGTA, 1% Glycerol, and 1.2 mM DTT) is added to the plates on top of the compound and pre-incubated for 30 minutes at room temperature. Following the incubation, 5 μL of 5×Sox-chromophore (CSox) labeled peptide substrate (AQT0297, AssayQuant) & ATP diluted in assay buffer is added to the plate to initiate the reaction. The assay is incubated at room temperature for 30 min after initiation. The CSox peptide substrate is phosphorylated by CDK1/B1 upon ATP hydrolysis.
# as §1
# CDK1/CyclinB1 [2] = molecular target: T2, CDK1/CyclinB1; assay: CDK1/Cyclin B1 Mobility Shift Assay (Caliper, Table B); conditions: read-out: CDK1/CCNB1 Caliper Ki: Average Ki
# Description: 10 nL of 2000× compound in 100% DMSO is added to a 384-well polypropylene assay plate. 15 μL of 1.3×CDK1/B1 and 1.3× fluorescent substrate (Wild-type, full length CDK1 in complex with wildtype, full length CyclinB1: Carna Cat #04-102 and FL-Peptide 29: PerkinElmer Cat #760429) diluted in kinase buffer (50 mM Hepes, 0.01% Brij-35, 10 mM MgCl2, 1 mM EGTA, 0.05% BSA, and 2 mM DTT) is added to the plates on top of the compound, mixed, and pre-incubated for 30 minutes at room temperature. The fluorescently labeled peptide substrate is phosphorylated by CDK1/B1 upon ATP hydrolysis. Following the incubation, 5 μL of 4×ATP diluted in kinase buffer is added to the plate to initiate the reaction. Following the 30-minute incubation, the reaction is stopped by adding 75 μL of stopping buffer containing 0.5 M EDTA.
# (§2) The assay plate is then read on a Lab Chip EZ Reader which separates the fluorescently labeled substrate and product peptides through a mobility difference. The phosphorylation of the substrate imparts a negative charge, which allows differences in separation as both are pulled through the microfluidic chip. The ratio of substrate and product values are used to generate percent conversion. These raw percent conversion values are normalized to calculate percent inhibition, which are fit to a four-parameter logistic curve and IC50 values are calculated. IC50 values are converted to Ki using substrate, Kmapp values, and the Cheng-Prusoff equation.
# CDK9/CyclinT1 = CDK9/CyclinT1 (Homo sapiens, UniProt P50750); assay: CDK9/CyclinT1 Mobility Shift Assay (Caliper, Table B); set-up: Wild-type, full length CDK9 in complex with wildtype, CyclinT1 (1-259): Biortus Cat #BP480/792/691; purchased Biortus BP480/792/691; conditions: read-out: CDK9/Cyclin T1 Caliper Ki: Average Ki
# Sequence of CDK9/CyclinT1 (P50750 whole entry): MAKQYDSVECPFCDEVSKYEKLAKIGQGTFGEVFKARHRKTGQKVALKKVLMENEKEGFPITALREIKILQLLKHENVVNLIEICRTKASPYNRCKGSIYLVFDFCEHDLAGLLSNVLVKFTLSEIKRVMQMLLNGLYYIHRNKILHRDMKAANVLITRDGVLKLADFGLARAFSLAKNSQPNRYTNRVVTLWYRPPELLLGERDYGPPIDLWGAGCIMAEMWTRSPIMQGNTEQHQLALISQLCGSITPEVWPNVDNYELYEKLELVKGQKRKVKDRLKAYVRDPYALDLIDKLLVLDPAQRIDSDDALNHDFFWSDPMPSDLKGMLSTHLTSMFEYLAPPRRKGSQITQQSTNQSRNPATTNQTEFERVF
# Sequence of CDK9/CyclinT1 (O60563 1-259 partner limits assumed): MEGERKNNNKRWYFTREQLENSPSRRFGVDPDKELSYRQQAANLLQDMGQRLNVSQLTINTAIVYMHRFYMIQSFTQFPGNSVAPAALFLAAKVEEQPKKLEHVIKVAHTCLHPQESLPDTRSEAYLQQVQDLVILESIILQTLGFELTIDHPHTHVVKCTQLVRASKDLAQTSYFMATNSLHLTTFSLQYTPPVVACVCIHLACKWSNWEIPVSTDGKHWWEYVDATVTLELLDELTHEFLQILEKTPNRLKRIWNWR
# Description: 10 nL of 2000× compound in 100% DMSO is added to a 384-well polypropylene assay plate. 15 μL of 1.3×CDK9/T1 and 1.3× fluorescent substrate (Wild-type, full length CDK9 in complex with wildtype, CyclinT1 (1-259): Biortus Cat #BP480/792/691 and FL-Peptide 34: PerkinElmer Cat #760643) diluted in kinase buffer (50 mM Hepes, 0.01% Brij-35, 10 mM MgCl2, 1 mM EGTA, 0.05% BSA, and 2 mM DTT) is added to the plates on top of the compound, mixed, and pre-incubated for 30 minutes at room temperature. The fluorescently labeled peptide substrate is phosphorylated by CDK9/T1 upon ATP hydrolysis. Following the incubation, 5 μL of 4×ATP diluted in kinase buffer is added to the plate to initiate the reaction. Following the 30-minute incubation, the reaction is stopped by adding 75 μL of stopping buffer containing 0.5 M EDTA.
# as §2
SMILES,Ki (CDK2/CyclinA2),CDK2/CCNA2 ChEF 10xKm Ki: CDK2/A2 Selectivity over CDK9/T1 (CDK2/CyclinA2),Ki (CDK1/CyclinB1 [1]),Ki (CDK1/CyclinB1 [2]),Ki (CDK9/CyclinT1)
"CN1CCNC(=O)O[C@@H]2CC[C@@H](C2)c2cc(n[nH]2)Nc2ccc(cc2F)S(=O)(=O)NCC1 [Compound 100, (1^1S, 1^3R,Z)-4^2-fluoro-9-methyl-2^1H-14-oxa-5-thia-3,6,9,12-tetraaza-2(5,3)-pyrazola-4(1,4)-benzena-1(1,3)-cyclopentanacyclotetradecaphan-13-one 5,5-dioxide]",1 to 25 nM,A (A>10),25 to 100 nM,≥ 100 nM,≥ 100 nM
"O=C1NCCCCNS(=O)(=O)c2ccc(c(F)c2)Nc2cc([nH]n2)[C@H]2CC[C@H](C2)O1 [Compound 99, (1^1S, 1^3R,Z)-4^2-fluoro-2^1H-13-oxa-5-thia-3,6,11-triaza-2(5,3)-pyrazola-4(1,4)-benzena-1(1,3)-cyclopentanacyclotridecaphan-12-one 5,5-dioxide]",< 1 nM,A (A>10),1 to 25 nM,1 to 25 nM,≥ 100 nM
"O=C1NCCCn2cc(cn2)S(=O)(=O)N2CCC(CC2)Nc2cc([nH]n2)[C@H]2CC[C@H](C2)O1 [Compound 95, (1^1S, 1^3R,2^4Z,6^4E)-2^1H,6^1H-12-oxa-5-thia-3,10-diaza-4(4,1)-piperidina-2(5,3),6(4,1)-dipyrazola-1(1,3)-cyclopentanacyclododecaphan-11-one 5,5-dioxide]",≥ 100 nM,C (C<5),≥ 100 nM,≥ 100 nM,≥ 100 nM
"O=C1NCCCCCCNS(=O)(=O)c2ccc(c(F)c2)Nc2cc([nH]n2)[C@H]2CC[C@H](C2)O1 [Compound 91, (1^1S,1^3R,Z)-4^2-fluoro-2^1H-15-oxa-5-thia-3,6,13-triaza-2(5,3)-pyrazola-4(1,4)-benzena-1(1,3)-cyclopentanacyclopentadecaphan-14-one 5,5-dioxide]",< 1 nM,A (A>10),1 to 25 nM,1 to 25 nM,25 to 100 nM
"CC1(C)CCCNS(=O)(=O)c2ccc(c(F)c2)Nc2cc([nH]n2)[C@H]2CC[C@H](C2)OC(=O)N1 [Compound 101, (1^1S,1^3R,Z)-4^2-fluoro-10,10-dimethyl-2^1H-13-oxa-5-thia-3,6,11-triaza-2(5,3)-pyrazola-4(1,4)-benzena-1(1,3)-cyclopentanacyclotridecaphan-12-one 5,5-dioxide]",1 to 25 nM,A (A>10),25 to 100 nM,≥ 100 nM,≥ 100 nM
"O=C1NCCCNS(=O)(=O)c2ccc(c(F)c2)Nc2cc([nH]n2)[C@H]2CC[C@H](C2)O1 [Compound 98, (1^1S, 1^3R,Z)-4^2-fluoro-2^1H-12-oxa-5-thia-3,6, 10-triaza-2(5,3)-pyrazola-4(1,4)-benzena-1(1,3)-cyclopentanacyclododecaphan-11-one 5,5-dioxide]",25 to 100 nM,B (5≤B<10),≥ 100 nM,≥ 100 nM,≥ 100 nM
"O=C1NCCCCCNS(=O)(=O)c2ccc(c(F)c2)Nc2cc([nH]n2)[C@H]2CC[C@H](C2)O1 [Compound 90, (1^1S,1^3R,Z)-4^2-fluoro-2^1H-14-oxa-5-thia-3,6,12-triaza-2(5,3)-pyrazola-4(1,4)-benzena-1(1,3)-cyclopentanacyclotetradecaphan-13-one 5,5-dioxide]",1 to 25 nM,A (A>10),1 to 25 nM,25 to 100 nM,25 to 100 nM
"O=C1NCC=CCNS(=O)(=O)c2ccc(c(F)c2)Nc2cc([nH]n2)[C@H]2CC[C@H](C2)O1 [Compound 102, (1^1S,1^3R,2^4Z)-4^2-fluoro-2^1H-13-oxa-5-thia-3,6,11-triaza-2(5,3)-pyrazola-4(1,4)-benzena-1(1,3)-cyclopentanacyclotridecaphan-8-en-12-one 5,5-dioxide]",< 1 nM,A (A>10),1 to 25 nM,25 to 100 nM,≥ 100 nM
"O=C1NCCOCCNS(=O)(=O)c2ccc(c(F)c2)Nc2cc([nH]n2)[C@H]2CC[C@H](C2)O1 [Compound 89, (1^1S,1^3R,Z)-4^2-Fluoro-2^1H-9,14-dioxa-5-thia-3,6,12-triaza-2(5,3)-pyrazola-4(1,4)-benzena-1(1,3)-cyclopentanacyclotetradecaphan-13-one 5,5-dioxide]",1 to 25 nM,A (A>10),1 to 25 nM,1 to 25 nM,1 to 25 nM

# Results, then the compound that gave them:
Ki (CDK2/CyclinA2),CDK2/CCNA2 ChEF 10xKm Ki: CDK2/A2 Selectivity over CDK9/T1 (CDK2/CyclinA2),Ki (CDK1/CyclinB1 [1]),Ki (CDK1/CyclinB1 [2]),Ki (CDK9/CyclinT1),SMILES
–,–,–,–,≥ 100 nM,"NS(=O)(=O)c1ccc2cc1OCCCCCNC(=O)O[C@@H]1CC[C@@H](C1)c1cnc(nc1)N2 (stereo in doubt) [Compound 105, rel-(2S,5R)-7-oxo-6,14-dioxa-8,20,22,25-tetraazatetracyclo[19.2.2.1^{2,5}.1^{15,19}]heptacosa-1(23),15,17,19(26),21,24-hexaene-16-sulfonamide]"
< 1 nM,A (A>10),1 to 25 nM,1 to 25 nM,≥ 100 nM,"O=C1NCCCCCCn2cc(cn2)S(=O)(=O)N2CCC(CC2)Nc2cc([nH]n2)[C@H]2CC[C@H](C2)O1 [Compound 97, (1^1S,1^3R,2^4Z,6^4E)-2^1H,6^1H-15-oxa-5-thia-3,13-diaza-4(4,1)-piperidina-2(5,3),6(4,1)-dipyrazola-1(1,3)-cyclopentanacyclopentadecaphan-14-one 5,5-dioxide]"
1 to 25 nM,A (A>10),25 to 100 nM,≥ 100 nM,≥ 100 nM,"O=C1NCCCCCn2cc(cn2)S(=O)(=O)N2CCC(CC2)Nc2cc([nH]n2)[C@H]2CC[C@H](C2)O1 [Compound 96, (1^1S,1^3R,2^4Z,6^4E)-2^1H,6^1H-14-oxa-5-thia-3,12-diaza-4(4,1)-piperidina-2(5,3),6(4,1)-dipyrazola-1(1,3)-cyclopentanacyclotetradecaphan-13-one 5,5-dioxide]"
< 1 nM,A (A>10),< 1 nM,< 1 nM,25 to 100 nM,O=C1NCCCCCCCNS(=O)(=O)c2ccc(c(F)c2)Nc2cc([nH]n2)[C@H]2CC[C@H](C2)O1 [Compound 92]
